The values below come from patent publication US10093630B2, “Pyrazole compounds and methods of making and using same” (ABIDE THERAPEUTICS, INC., priority 2014, dated 2018).

Each structure is given as a SMILES string. Where two headings read alike, the source gives them in different places.

The term inhibition denotes the share of the control response that was lost under treatment. In general, IC50 refers to the point on the concentration scale where inhibition reaches its midpoint.

Holding throughout (experiment): In vitro competitive activity-based protein profiling (gel-based, FP-Rh or HT-01 probe)
Holding throughout (type): biochemical

For one experiment, the target named is T1, ABHD6 (Mus musculus, UniProt Q8R2Y0).
T1 construct: Proteomes (mouse brain membrane fraction or cell lysates); from tissue; host or cells: mouse brain membrane fraction (or cell lysates, not specified)
T1 sequence (Q8R2Y0 1-336): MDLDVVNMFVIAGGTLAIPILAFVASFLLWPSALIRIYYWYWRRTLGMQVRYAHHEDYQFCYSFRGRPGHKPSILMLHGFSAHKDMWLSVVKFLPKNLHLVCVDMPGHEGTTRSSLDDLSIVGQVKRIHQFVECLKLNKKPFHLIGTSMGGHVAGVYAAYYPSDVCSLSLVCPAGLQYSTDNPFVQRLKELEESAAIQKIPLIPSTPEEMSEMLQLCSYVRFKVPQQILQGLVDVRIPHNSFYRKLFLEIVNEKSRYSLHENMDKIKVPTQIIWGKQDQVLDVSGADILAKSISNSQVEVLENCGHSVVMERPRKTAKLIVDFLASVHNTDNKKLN
Conditions: for inhibition at 1 µM: 1 μM inhibitor, read-out: % Inhibition at 1 μM, C = ABHD6; for IC50: mouse brain membrane fraction or cell lysates, 30 min preincubation at 37° C., read-out: Mouse (IC50 value, nM) ABHD6; for inhibition at 10 µM: 10 μM inhibitor, read-out: % Inhibition at 10 μM, C = ABHD6. The protocol: (§1) In Vitro Competitive Activity-Based Protein Profiling.
(§2) Proteomes (mouse brain membrane fraction or cell lysates) (50 μL, 1.0 mg/mL total protein concentration) were preincubated with varying concentrations of inhibitors at 37° C. After 30 min, FP-Rh or HT-01 ([…], 50 μM in DMSO) was added and the mixture was incubated for another 30 min at 37° C. Reactions were quenched with SDS loading buffer (15 μL—4×) and run on SDS-PAGE. Following gel imaging, serine hydrolase activity was determined by measuring fluorescent intensity of gel bands corresponding to MAGL, ABHD6, FAAH, and PLA2G7 using ImageJ 1.43u software.

The target of a further experiment is T2, FAAH (Mus musculus, UniProt O08914).
T2 construct: Proteomes (mouse brain membrane fraction or cell lysates); from tissue; host or cells: mouse brain membrane fraction (or cell lysates, not specified)
T2 sequence (O08914 1-579): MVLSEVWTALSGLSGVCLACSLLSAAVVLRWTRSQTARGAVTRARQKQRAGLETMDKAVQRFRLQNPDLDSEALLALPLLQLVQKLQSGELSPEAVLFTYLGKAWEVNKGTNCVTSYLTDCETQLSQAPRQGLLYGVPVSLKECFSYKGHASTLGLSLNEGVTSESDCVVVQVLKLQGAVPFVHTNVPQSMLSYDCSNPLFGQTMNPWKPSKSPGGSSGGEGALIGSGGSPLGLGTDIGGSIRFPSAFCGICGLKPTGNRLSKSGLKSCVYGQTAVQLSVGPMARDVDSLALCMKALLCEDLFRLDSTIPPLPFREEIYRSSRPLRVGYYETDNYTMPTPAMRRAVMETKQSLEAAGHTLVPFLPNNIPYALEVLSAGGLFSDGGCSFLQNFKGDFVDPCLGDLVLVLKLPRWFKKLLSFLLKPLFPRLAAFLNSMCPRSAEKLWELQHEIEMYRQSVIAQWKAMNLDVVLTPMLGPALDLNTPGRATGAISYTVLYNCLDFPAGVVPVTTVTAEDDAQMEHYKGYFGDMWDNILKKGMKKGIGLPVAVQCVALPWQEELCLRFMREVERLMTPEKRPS
The following applies: for inhibition at 1 µM: 1 μM inhibitor, read-out: % Inhibition at 1 μM, B = FAAH; for IC50: mouse brain membrane fraction or cell lysates, 30 min preincubation at 37° C., read-out: Mouse (IC50 value, nM) FAAH; for inhibition at 10 µM: 10 μM inhibitor, read-out: % Inhibition at 10 μM, B = FAAH. The protocol: as §1, §2

Another experiment deals with T3, MAGL (Mus musculus, UniProt O35678).
T3 construct: Proteomes (mouse brain membrane fraction or cell lysates); from tissue; host or cells: mouse brain membrane fraction (or cell lysates, not specified)
T3 sequence (O35678 1-303): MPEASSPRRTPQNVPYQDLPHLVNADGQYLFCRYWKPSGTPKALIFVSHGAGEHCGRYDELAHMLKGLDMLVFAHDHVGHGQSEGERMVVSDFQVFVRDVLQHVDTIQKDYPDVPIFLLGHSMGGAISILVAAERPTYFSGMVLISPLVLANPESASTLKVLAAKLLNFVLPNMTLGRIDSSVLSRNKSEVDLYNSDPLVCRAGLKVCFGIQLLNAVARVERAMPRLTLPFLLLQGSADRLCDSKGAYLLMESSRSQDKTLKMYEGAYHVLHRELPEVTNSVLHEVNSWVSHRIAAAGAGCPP
Conditions: for inhibition at 1 µM: 1 μM inhibitor; for IC50: mouse brain membrane fraction or cell lysates, 30 min preincubation at 37° C., read-out: Mouse (IC50 value, nM) MAGL; for inhibition at 10 µM: 10 μM inhibitor. The protocol:
as §1, §2

For a further experiment, the target named is T4, PLA2G7 (Mus musculus, UniProt Q60963).
T4 construct: Proteomes (mouse brain membrane fraction or cell lysates); from tissue; host or cells: mouse brain membrane fraction (or cell lysates, not specified)
T4 sequence (Q60963 22-440): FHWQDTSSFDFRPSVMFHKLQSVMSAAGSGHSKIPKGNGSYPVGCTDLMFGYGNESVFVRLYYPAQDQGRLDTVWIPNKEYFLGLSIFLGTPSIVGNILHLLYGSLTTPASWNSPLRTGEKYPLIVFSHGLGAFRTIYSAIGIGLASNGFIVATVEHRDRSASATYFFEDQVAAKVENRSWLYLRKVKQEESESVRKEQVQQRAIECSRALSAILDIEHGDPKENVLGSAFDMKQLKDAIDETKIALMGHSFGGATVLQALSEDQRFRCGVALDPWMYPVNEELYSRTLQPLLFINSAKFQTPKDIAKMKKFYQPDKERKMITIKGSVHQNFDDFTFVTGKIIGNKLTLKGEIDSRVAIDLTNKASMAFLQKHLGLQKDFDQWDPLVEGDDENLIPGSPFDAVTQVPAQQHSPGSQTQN
The following applies: for inhibition at 1 µM: 1 μM inhibitor, read-out: % Inhibition at 1 μM, D = PLA2G7; for IC50: mouse brain membrane fraction or cell lysates, 30 min preincubation at 37° C. The protocol:
as §1, §2

In the case of `Cc1cnn(C(=O)N2CCCN(Cc3ccc(OCc4ccccc4)cc3)CC2)c1` [Example 302, (4-(4-(Benzyloxy)benzyl)-1,4-diazepan-1-yl)(4-methyl-1H-pyrazol-1-yl)methanone], the inhibition at 1 µM at ABHD6 (gel-based competitive ABPP) was < 25%; on FAAH (gel-based competitive ABPP), < 25%; on MAGL (gel-based competitive ABPP), 25 to 75%; at PLA2G7 (gel-based competitive ABPP), < 25%.
`COc1cccc(CN2CCN(C(=O)n3cc(C(F)(F)F)cn3)CC2)c1` [Example 271, (4-(3-Methoxybenzyl)piperazin-1-yl)(4-(trifluoromethyl)-1H-pyrazol-1-yl)methanone]: the inhibition at 1 µM at ABHD6 (gel-based competitive ABPP), on FAAH (gel-based competitive ABPP), on MAGL (gel-based competitive ABPP) and at PLA2G7 (gel-based competitive ABPP) was > 75% each time. Besides, the IC50 at ABHD6, on FAAH, on MAGL and at PLA2G7 was < 100 nM each time.
As to `O=C(N1CCN(Cc2cccc(F)c2)CC1)n1cc(C(F)(F)F)cn1` [Example 269, (4-(3-Fluorobenzyl)piperazin-1-yl)(4-(trifluoromethyl)-1H-pyrazol-1-yl)methanone], the inhibition at 1 µM at ABHD6 (gel-based competitive ABPP), at FAAH (gel-based competitive ABPP), on MAGL (gel-based competitive ABPP) and on PLA2G7 (gel-based competitive ABPP) was > 75% throughout. The IC50 on ABHD6, on FAAH, at MAGL and on PLA2G7 was < 100 nM each time.
Regarding `CN(CCN(C)S(C)(=O)=O)C(=O)n1cc(C(F)(F)F)cn1` [Example 195, N-Methyl-N-(2-(N-methylmethylsulfonamido)ethyl)-4-(trifluoromethyl)-1H-pyrazole-1-carboxamide], the inhibition at 1 µM at ABHD6, at FAAH, on MAGL and at PLA2G7 was < 25% each time. Also, the inhibition at 10 µM was > 75% on ABHD6; > 75% on FAAH; < 25% at MAGL; 25 to 75% on PLA2G7 (10 μM inhibitor, read-out: % Inhibition at 10 μM, D = PLA2G7).
On to `Cc1cnn(C(=O)N2CCN(C(c3ccc(Cl)cc3)c3ccc(Cl)cc3)CC2)c1` [Example 117, (4-(Bis(4-chlorophenyl)methyl)piperazin-1-yl)(4-methyl-1H-pyrazol-1-yl)methanone], for which, on ABHD6, the inhibition at 1 µM was < 25%, the inhibition at 10 µM is > 75% and the IC50 was > 1000 nM. In addition, on FAAH, the inhibition at 1 µM was < 25%, the inhibition at 10 µM is < 25% and the IC50 was > 1000 nM. Besides, on MAGL, the inhibition at 1 µM was > 75%, the inhibition at 10 µM was > 75% and the IC50 was < 100 nM.
`O=C(c1cnn(C(=O)N2CCN(C(c3ccc(Cl)cc3)c3ccc(Cl)cc3)CC2)c1)N1CCCC1` [Example 48, (4-(Bis(4-chlorophenyl)methyl)piperazin-1-yl)(4-(pyrrolidine-1-carbonyl)-1H-pyrazol-1-yl)methanone]: the values for the IC50 at ABHD6, on FAAH and on MAGL were 100 to 1000 nM, > 1000 nM and 100 to 1000 nM, respectively.
For `O=C(N1CCN(Cc2ccc(Cl)cc2N2CCC3(CCOCC3)C2)CC1)n1cc(Cl)cn1` [Example 102, (4-Chloro-1H-pyrazol-1-yl)(4-(4-chloro-2-(8-oxa-2-azaspiro[4.5]decan-2-yl)benzyl)piperazin-1-yl)methanone], the inhibition at 1 µM on ABHD6 was > 75%; on FAAH, < 25%; at MAGL, > 75%. The half-inhibitory concentration (IC50) at ABHD6 is < 100 nM; on FAAH it was > 1000 nM; at MAGL it was < 100 nM.
Turning to `CC(C)n1cc(CN2CCN(C(=O)n3cc(Cl)cn3)CC2)c(-c2ccccc2)n1` [Example 101, (4-Chloro-1H-pyrazol-1-yl)(4-((1-isopropyl-3-phenyl-1H-pyrazol-4-yl)methyl)piperazin-1-yl)methanone], the inhibition at 1 µM at ABHD6, at FAAH and on MAGL was > 75% throughout.
In the case of `Cc1cnn(C(=O)NCc2ccc3ccccc3c2)c1` [Example 44, 4-Methyl-N-(naphthalen-2-ylmethyl)-1H-pyrazole-1-carboxamide], the inhibition at 10 µM on ABHD6, at FAAH and at MAGL was < 25% in each case.
For the compound `O=C(N1CCOCC1)n1cc(Cl)cn1` [Example 97, (4-Chloro-1H-pyrazol-1-yl)(morpholino)methanone], the results for the inhibition at 10 µM at ABHD6, on FAAH and at MAGL were < 25%, > 75% and < 25%, respectively.
Regarding `O=C(N1CCCC1)n1cc(-c2ccc(-c3ccccc3Cl)cc2)cn1` [Example 108, (4-(2′-Chloro-[1,1′-biphenyl]-4-yl)-1H-pyrazol-1-yl)(pyrrolidin-1-yl)methanone], the inhibition at 10 µM at ABHD6 was > 75%; on FAAH it was < 25%; on MAGL it was < 25%.
As to `O=C(NC1CC1)c1cnn(C(=O)N2CCN(C(c3ccc(Cl)cc3)c3ccc(Cl)cc3)CC2)c1` [Example 49, 1-(4-(Bis(4-chlorophenyl)methyl)piperazine-1-carbonyl)-N-cyclopropyl-1H-pyrazole-4-carboxamide], the IC50 at ABHD6 was 100 to 1000 nM; at FAAH, > 1000 nM; at MAGL, 100 to 1000 nM.
In the case of `O=C(N1CCN(C(c2ccc(Cl)cc2)c2ccc(Cl)cc2)CC1)n1cc(-c2ccccc2)cn1` [Example 119, (4-(Bis(4-chlorophenyl)methyl)piperazin-1-yl)(4-phenyl-1H-pyrazol-1-yl)methanone], the inhibition at 1 µM on ABHD6 is < 25%; at FAAH, < 25%; on MAGL, 25 to 75%. Moreover, the inhibition at 10 µM at ABHD6 was > 75%; at FAAH it was < 25%; on MAGL it was > 75%.
